Experimental data as given in patent US20200308620A1, “PREDICTING TUMOR SPECIFICITY OF TARGETED THERAPEUTICS USING ATOMIC FORCE MICROSCOPY (AFM)” (Children's Medical Center Corporation, priority 2017, published 2020).
Converted amounts (≈) assume the structure as drawn.

Experiments:
MDA-MB-231 cells = test: In vitro cytotoxicity (cell viability) assay; format: cell-based, human; conditions: MDA-MB-231, Dox concentration, treated 4 hours, grown 48 hours
Experimental: In vitro cytotoxicity of ICAM-Dox-LPs on TNBC cells was evaluated using a cell viability assay. Five thousand cells (MDA-MB-231, MDA-MB-436, and MDA-MB-157) were seeded in each well of a 96 well plate and incubated for 24 hours. Cells were treated with (1) ICAM-LP without Dox; (2) Free Dox; (3) non-specific IgG-Dox-LPs and (4) ICAM-Dox-LPs for 4 hours. Cells were rinsed twice with PBS and grown for 48 hours. Cell viability was determined by a Dojindo cell counting kit using the manufacturer's protocol (Rockville, Md.).

[1] = tested on: patient-derived NHL B cells; conditions: cited from earlier work
normal red blood cells = conditions: Li et al.; cited from earlier work
[2] = tested on: ICAM1 expression on MDA-MB-231 cell surface; test: Flow cytometric analysis of ICAM1 surface expression pre- and post-MCD treatment; format: cell-based, human; conditions: MDA-MB-231, pre- and post-MCD treatment
Text: In addition to the overexpression level, the organization of antigens on the cell membrane is another key factor driving differences in antibody-antigen binding behavior^11. AFM-detected adhesive events were also used to spatially map the binding forces on MDA-MB-231 (FIG. 2E) and MCF10A (FIG. 2F) cell surface. […] These “hot-spots” are predicted to be the primary binding sites for ICAM1 antibody-directed nanomedicine due to the high binding forces. ICAM1 molecules may be enriched in membrane lipid rafts of MDA-MB-231 cells to facilitate functional signaling^22. […] In order to determine whether ICAM1 adhesion forces are dependent on the organization of ICAM1 molecules in lipid rafts on the cell membrane, both MDA-MB-231 and MCF10A cells were treated with methyl-beta-cyclodextrin (MCD), a cholesterol-depleting drug that disrupts lipid rafts, and then the average binding force was re-measured. […]
10^6 cells were collected and rinsed twice through suspension-spin cycles. […] Cells were rinsed with 1% BSA in PBS three times, resuspended in PBS, and evaluated by a BD FACSCalibur flow cytometer (BD Biosciences). Quantification of cell surface antigen was determined with reference to Quantum Simply Cellular microbeads, using the protocol provided by the manufacturer.

COc1cccc2c1C(=O)c1c(O)c3c(c(O)c1C2=O)C[C@@](O)(C(=O)CO)C[C@@H]3O[C@H]1C[C@H](N)[C@H](O)[C@H](C)O1 [free Dox, doxorubicin]
IC50 (cytotoxicity) (MDA-MB-231 cells): 7.4 µg/mL (≈ 13.6 µM)

Rituximab: FDA-approved CD20 antibody for Non-Hodgkin's Lymphoma treatment
binding force difference (NHL B cells minus normal red blood cells) ([1]; NHL B cells minus normal red blood cells): 33 pN | binding force ([1]; patient-derived NHL B cells, Li et al.): 54±34 pN | binding force (normal red blood cells): 21±19 pN

methyl-beta-cyclodextrin [MCD]
effect on average ICAM1 expression on cell surface [2]: did not affect
